In ChEMBL document CHEMBL3120100, “Identification and biological evaluation of flavonoids from the fruits of Prunus mume” (2014):

Legend:
[1] = Antioxidant activity assessed as trolox equivalent of APPH-induced peroxyl radical scavenging activity measured every 2 mins by ORAC fluorescence assay; format: functional
[2] = Antioxidant activity assessed as reduction of Cu2+ to Cu+ at 10 uM; format: functional
[3] = molecular target: T1, Tartrate-resistant acid phosphatase type 5 (Mus musculus) (UniProt Q05117); assay: Inhibition of TRAP activity in RANKL-induced Balb/c mouse RAW264.7 cells at 10 uM after 1 hr by ELISA relative to control; format: cell-based
T1 sequence (whole entry): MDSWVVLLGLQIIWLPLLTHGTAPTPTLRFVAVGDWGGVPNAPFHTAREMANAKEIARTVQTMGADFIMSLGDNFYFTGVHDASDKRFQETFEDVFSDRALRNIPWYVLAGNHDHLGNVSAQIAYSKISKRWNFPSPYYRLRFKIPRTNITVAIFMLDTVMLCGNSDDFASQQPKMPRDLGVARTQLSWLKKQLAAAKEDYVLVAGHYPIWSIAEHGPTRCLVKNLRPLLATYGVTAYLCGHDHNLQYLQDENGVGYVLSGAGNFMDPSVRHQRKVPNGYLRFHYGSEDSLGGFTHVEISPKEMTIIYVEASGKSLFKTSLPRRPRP

[4] = Antiosteoporotic activity in alpha-MEM-induced C57BL/6 mouse MC3T3-E1 cells assessed as increase in mineralization by measuring calcium deposition at 5 uM by Alizarin Red staining assay relative to control; format: functional
[5] = Antiosteoporotic activity in C57BL/6 mouse MC3T3-E1 cells assessed as increase in mineralization by measuring calcium deposition at 5 uM by Alizarin Red staining assay relative to control; format: functional
[6] = Antioxidant activity assessed as trolox equivalent of APPH-induced peroxyl radical scavenging activity at 1 uM measured every 2 mins by ORAC fluorescence assay; format: functional
[7] = molecular target: T1, Tartrate-resistant acid phosphatase type 5 (Mus musculus); assay: Inhibition of TRAP activity in RANKL-induced Balb/c mouse RAW264.7 cells at 1 uM after 1 hr by ELISA relative to control; format: cell-based
[8] = Antiosteoporotic activity in alpha-MEM-induced C57BL/6 mouse MC3T3-E1 cells assessed as increase in collagen synthesis at 5 uM by Sirius Red-based colorimetric assay relative to control; format: functional
[9] = Antiosteoporotic activity in C57BL/6 mouse MC3T3-E1 cells assessed as increase in collagen synthesis at 5 uM by Sirius Red-based colorimetric assay relative to control; format: functional
[10] = molecular target: T1, Tartrate-resistant acid phosphatase type 5 (Mus musculus); assay: Inhibition of TRAP activity in Balb/c mouse RAW264.7 cells at 10 uM after 1 hr by ELISA relative to control; format: cell-based

With `Oc1ccc([C@@]23Oc4cc(O)cc(O)c4[C@@H](c4c(O)cc(O)c5c4O[C@H](c4ccc(O)c(O)c4)[C@H](O)C5)[C@@H]2O3)cc1` the Activity [1] was “Dose-dependent effect”, the Activity [2] was 29.9 µM and the TRAP activity (% of control) [3] was 85.6%. For the same molecule, the Activity [4] was 89.84%, the Activity [5] was 151.36% and the Activity [6] was 5.42 µM. It also gave an inhibition [7] of 78.5%, an Activity [8] of 77.16% and an Activity [9] of 179.68%.

For `Oc1cc(O)c2c(c1)O[C@@]1(c3ccc(O)c(O)c3)O[C@H]1[C@@H]2c1c(O)cc(O)c2c1O[C@H](c1ccc(O)c(O)c1)[C@H](O)C2`, the Activity [1] was “Dose-dependent effect”, the Activity [2] was 34.7 µM and the TRAP activity (% of control) [3] was 107%. For the same molecule, the Activity [4] was 109.85%, the Activity [5] was 185.08% and the Activity [6] was 5.22 µM. It also gave an inhibition [7] of 98%, an Activity [8] of 103.38% and an Activity [9] of 240.74%.

In the case of `C[C@@H]1O[C@@H](O[C@H]2[C@H](Oc3c(-c4ccc(O)c(O)c4)oc4cc(O)cc(O)c4c3=O)O[C@H](CO)[C@H](O)[C@@H]2O)[C@H](O)[C@H](O)[C@H]1O`, the Activity [1] is reported as “Dose-dependent effect”, the Activity [2] is reported as 19.4 µM and the TRAP activity (% of control) [3] is reported as 128%. It also gave an Activity [4] of 104.72%, an Activity [5] of 176.44% and an Activity [6] of 3.36 µM. For the same molecule, the inhibition [7] was 101%, the Activity [8] was 96.59% and the Activity [9] was 224.92%.

In the case of `Oc1cc(O)c2c(c1)O[C@H](c1ccc(O)c(O)c1)[C@H](O)C2` [(-)-EPICATECHIN], the Activity [1] is reported as “Dose-dependent effect”, the Activity [2] is reported as 25.7 µM and the TRAP activity (% of control) [3] is reported as 84%. For the same molecule, the Activity [4] was 111.92%, the Activity [5] was 188.57% and the Activity [6] was 4.49 µM. It also gave an inhibition [7] of 78.3%, an Activity [8] of 105.69% and an Activity [9] of 246.13%.

For `O=c1c(O[C@@H]2O[C@H](CO)[C@@H](O)[C@H](O)[C@H]2O)c(-c2ccc(O)c(O)c2)oc2cc(O)cc(O)c12` [ISOQUERCETIN], the Activity [1] was “Dose-dependent effect”, the Activity [2] was 21.3 µM and the TRAP activity (% of control) [3] was 82.9%. For the same molecule, the Activity [4] was 107.58%, the Activity [5] was 181.25% and the Activity [6] was 4.4 µM. The inhibition [7] was 76.6%, the Activity [8] was 112.49% and the Activity [9] was 261.95%.

In the case of `C[C@@H]1O[C@@H](OC[C@H]2O[C@@H](Oc3c(-c4ccc(O)c(O)c4)oc4cc(O)cc(O)c4c3=O)[C@H](O)[C@@H](O)[C@@H]2O)[C@H](O)[C@H](O)[C@H]1O` [RUTIN], the Activity [1] is reported as “Dose-dependent effect”, the Activity [2] is reported as 30.1 µM and the TRAP activity (% of control) [3] is reported as 71.7%. The Activity [4] was 103.24%, the Activity [5] was 173.94% and the inhibition [10] was 146%. For the same molecule, the Activity [6] was 3.78 µM, the inhibition [7] was 78% and the Activity [8] was 100.09%. The Activity [9] was 233.08%.
